One assay concerns the target DHODH (Homo sapiens (Human), UniProt Q02127). In words: DHODH activity assay (coupled enzyme assay, DCIP reduction). Conditions: read-out: DHODH inhibition activity, IC50 group. It is filed as biochemical. The protocol: The DHODH activity assay is a coupled enzyme assay in which oxidation of DHO and subsequent reduction of ubiquinone are stoichiometrically equivalent to the reduction of DCIP ([…]). The reduction of DCIP is accompanied by a loss of absorbance at 610 nm.
Buffer Preparation: 50 mM tris HCl, 150 mM KCl, and pH 8.0, 0.8% triton.
L-Dihydroorotic acid stock solution of 20 mM in buffer.
2, 6-Dichloroindophenol Sodium salt hydrate stock solution of 20 mM in buffer.
Decylubiquinone stock solution of 20 mM in buffer.
5 μL of Dimethyl sulfoxide or a compound of formula (I) in DMSO solution was added to the wells of a 96 well plate. Compounds of formula (I) were measured at 10 μM.
Protein along with buffer was added, so that the total volume including the DMSO was 87 μL. Compound and protein were incubated for half an hour at room temperature after mixing. 5 μL of 20 mM solution of L-Dihydroorotic acid, 5 μL of 2 mM solution of Decylubiquinone and 3 μL of 2 mM solution of 2, 6-Dichloroindophenol sodium salt hydrate were added to the above solution (total assay volume 100 μL). The mixture was stirred for 2 min and absorbance was recorded at every 10 min at 610 nanometers.
Percent inhibition is calculated as follows: […]
A 2 mM DMSO stock solution of the selected trisubstituted benzoimidazole and benzotriazole derivatives of formula (I) of the present invention to be examined was prepared. Subsequent ⅓rd dilutions were made.
5 μL of each stock of compound of formula (I) was used for each 100 μL assay. Therefore, 5 μL of the 2 mM stock provided 100 μL of 100 μM solution of compound of formula (I), when made up with buffer, protein and substrate. See also: Ulrich et al. (2001) Eur. J. Biochem.268, 1861-1868.

The test system of a further assay is Ramos cells. The experiment in a line: Ramos proliferation assay (XTT). It is filed as cell-based. The note with it: Homo sapiens, 72 hrs; for inhibition at 30 µM: read-out: Maximum % Inhibition at 30 μM; for IC50: XTT; for inhibition at 10 µM: read-out: Maximum % Inhibition (at 10 μM). The text has this:
Cell proliferation assay is a sensitive method for quantification of viable cells in cytotoxicity or proliferation assay. The XTT (2,3-bis[2-Methoxy-4-nitro-5-sulfophenyl]-2 H-tetrazolium-5-carboxyanilide inner salt) system is a means of measuring the activity of living cells via mitochondrial dehydrogenases. Mitochondrial dehydrogenases of viable cells cleave the tetrazolium ring of XTT, yielding orange formazon crystals which are soluble in aqueous solutions. The XTT solution is potentiated by the addition of an electron coupling agent, phenazine methosulphate (PMS) to the reaction. The resulting orange colour is spectrophotometrically measured at 450 nm. An increase or decrease in cell numbers results in a concomitant change in the amount of formazon formed, indicating the degree of cytotoxicity caused by the test material.
Dissolve 17.7 g IMDM (Iscove's Modified Dulbecco's Medium) powder, 1.5 g sodium bicarbonate pH 7.2-7.4 in 1 L MiliQ water, add 1% Pencilin/ Streptomycin and 10% FBS.
Dissolve 10.6 g Ham's F12 powder, 1.5 g sodium bicarbonate pH 7.2-7.4 in 1 L MiliQ water, add 1% Penicillin/Streptomycin. DMSO used as vehicle.
Ramos cells were re-suspended to a density of 1×10^5 cells/ ml in complete IMDM medium. 95 μL of this cell suspension was added to the 96-well plate to seed ˜10,000 cells per well. The plates were incubated at 37° C. under a humidified atmosphere of 5% CO2 for ˜1 hour before compound addition.
Test compounds (Refer to Table 1) were dissolved in 100% DMSO to generate a 2/6/10/20 mM stock solution. A 200× concentration of the required final concentrations was prepared in DMSO. 10 μL of each concentration (200×) was then diluted in 90 μL of serum-free Ham's F12 medium to get an intermediate concentration of 20× in medium. The DMSO concentration in this step is 10% (Intermediate dilution). 5 μL of each intermediate dilution was then added in triplicates in the previously seeded 96-well plate. The final DMSO concentration was 0.5% in the experimental wells. Cells treated with 0.5% DMSO served as positive control. 100 μL, of complete IMDM medium served as media blank for data analysis. 200 μL, of 1× PBS was added in all corner wells of the assay plate. Plates were then incubated for 72 hrs in an incubator with 5% CO2 at 37° C.
On termination day, 100 μl of XTT solution (1 mg/ml XTT supplemented with 25 μM PMS in Ham's F12 medium) was added to each well. Plates were incubated for 2 hrs. The amount of formazon produced was determined by reading the absorbance of the plate using VICTOR X5 multilabel plate reader at wavelength of 450 nm. The IC50 values were determined as concentrations that reduced cell viability by 50% and the curve was plotted with GraphPad Prism 6.0.
Percent (%) Inhibition was calculated by normalizing DMSO control values to 100% using the formula: % Inhibition=[…](Abs450test compound−blank)/(Abs450positive control−blank)*100
Test compound contains cells, test compound, IMDM medium and 0.5% DMSO
Positive control contains cells, IMDM medium and 0.5% DMSO
Blank contains IMDM medium
A general note: Tetrazolium assays rely on reduction of a dye to a coloured formazan, in cell work by metabolically active cells.

DHODH, sequence (Q02127 whole entry): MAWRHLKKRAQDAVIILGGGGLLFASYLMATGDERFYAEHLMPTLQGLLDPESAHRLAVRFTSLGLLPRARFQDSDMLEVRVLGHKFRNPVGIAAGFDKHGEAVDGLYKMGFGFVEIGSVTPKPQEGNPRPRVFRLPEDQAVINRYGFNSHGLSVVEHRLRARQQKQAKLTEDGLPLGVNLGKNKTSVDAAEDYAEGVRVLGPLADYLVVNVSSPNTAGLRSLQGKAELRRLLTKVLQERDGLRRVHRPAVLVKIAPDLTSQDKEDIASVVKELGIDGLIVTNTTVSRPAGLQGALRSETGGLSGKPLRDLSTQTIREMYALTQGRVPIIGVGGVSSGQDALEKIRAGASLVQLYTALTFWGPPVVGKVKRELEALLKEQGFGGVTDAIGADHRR

Take `Cn1nnc2cc(-c3c(F)c(F)c(-c4ccccc4)c(F)c3F)cc(C(=O)O)c21` [Compound 19, 1-methyl-5-(2,3,5,6-tetrafluoro-[1,1′-biphenyl]-4-yl)-1H-benzo[d][1,2,3]triazole-7-carboxylic acid]: on DHODH, the IC50 was less than 0.1 µM. For the same molecule, in the assay on Ramos cells, the inhibition at 30 µM was determined as 106% and the IC50 is 0.07 µM.

In the case of `CN1CCN(Cc2ccccc2-c2ccc(-c3cc(C(=O)O)c4nn(C)nc4c3)cc2)CC1` [Compound 30, 2-methyl-6-(2′-((4-methylpiperazin-1-yl)methyl)-[1,1′-biphenyl]-4-yl)-2H-benzo[d][1,2,3]triazole-4-carboxylic acid], the IC50 at DHODH was greater than 1 µM. The inhibition at 30 µM in the assay with Ramos cells amounted to 56%.

In the case of `CN1CCN(Cc2ccccc2-c2ccc(C3=CC4N=NN(C)C4C(C(=O)O)=C3)cc2)CC1` (centres unmarked) [Compound 29, 1-methyl-5-(2′-((4-methylpiperazin-1-yl)methyl)-[1,1′-biphenyl]-4-yl)-3a,7a-dihydro-1H-benzo[d][1,2,3]triazole-7-carboxylic acid], the half-inhibitory concentration (IC50) on DHODH is 0.101 to 1 µM. Further, in the assay on Ramos cells, the inhibition at 30 µM is 81% and the IC50 is 8.97 µM.

With `CC(=O)Nc1cccc(-c2ccc(-c3cc(C(=O)O)c4c(c3)nnn4C)cc2)c1` [Compound 32, 5-(3′-acetamido-[1,1′-biphenyl]-4-yl)-1-methyl-1H-benzo[d][1,2,3]triazole-7-carboxylic acid], the IC50 was greater than 1 µM at DHODH and 14.6 µM in the assay on Ramos cells. Besides, the inhibition at 30 µM in the assay with Ramos cells came out at 74%.

With `CN(C)Cc1cccc(-c2c(F)c(F)c(-c3cc(C(=O)O)c4c(c3)nnn4C)c(F)c2F)c1` [Compound 40, 5-(3′-((dimethylamino)methyl)-2,3,5,6-tetrafluoro-[1,1′-biphenyl]-4-yl)-1-methyl-1H-benzo[d][1,2,3]triazole-7-carboxylic acid], on DHODH, the IC50 lay within 0.101 to 1 µM. For the same molecule, in the assay with Ramos cells, the inhibition at 30 µM came to 84% and the IC50 was 11.8 µM.

Take `Cn1nnc2cc(-c3c(F)c(F)c(-c4cccc(CN5CCCCC5)c4)c(F)c3F)cc(C(=O)O)c21` [Compound 34, 1-methyl-5-(2,3,5,6-tetrafluoro-3′-(piperidin-1-ylmethyl)-[1,1′-biphenyl]-4-yl)-1H-benzo[d][1,2,3]triazole-7-carboxylic acid.2,2,2-trifluoroacetic acid]: the IC50 at DHODH was in the range of 0.101 to 1 µM. Also, in the assay on Ramos cells, the inhibition at 10 µM turned out to be 111% and the IC50 turned out to be 0.675 µM.

In the case of `Cn1nnc2cc(-c3ccc(-c4ccccc4)cc3)cc(C(=O)O)c21` [Compound 3, 5-([1,1′-biphenyl]-4-yl)-1-methyl-1H-benzo[d][1,2,3]triazole-7-carboxylic acid], at DHODH, the IC50 is 0.101 to 1 µM. In addition, in the assay on Ramos cells, the inhibition at 30 µM came out at 113% and the IC50 was determined as 0.524 µM.

As for `Cn1nnc2cc(-c3ccc(-c4cccc(CN5CCOCC5)c4)cc3)cc(C(=O)O)c21` [Compound 15, 1-methyl-5-(3′-(morpholinomethyl)-[1,1′-biphenyl]-4-yl)-1H-benzo[d][1,2,3]triazole-7-carboxylic acid], at DHODH, the IC50 was greater than 1 µM. Moreover, in the assay on Ramos cells, the inhibition at 30 µM amounted to 96% and the IC50 amounted to 8.41 µM.

`Cc1ccccc1-c1ccc(-c2cc(C(=O)O)c3nn(C)nc3c2)cc1` [Compound 8, 2-methyl-6-(2′-methyl-[1,1′-biphenyl]-4-yl)-2H-benzo[d][1,2,3]triazole-4-carboxylic acid]: the IC50 was less than 0.1 µM at DHODH and 0.154 µM in the assay on Ramos cells. Besides, the inhibition at 30 µM in the assay with Ramos cells was found to be 103%.

With `CNCc1cccc(-c2c(F)c(F)c(-c3cc(C(=O)O)c4c(c3)nnn4C)c(F)c2F)c1` [Compound 37, 1-methyl-5-(2,3,5,6-tetrafluoro-3′-((methylamino)methyl)-[1,1′-biphenyl]-4-yl)-1H-benzo[d][1,2,3]triazole-7-carboxylic acid], the IC50 at DHODH was greater than 1 µM.

Consider `Cn1nnc2cc(-c3ccc(-c4ccccc4CN4CCCC4)cc3)cc(C(=O)O)c21` [Compound 27, 1-methyl-5-(2′-(pyrrolidin-1-ylmethyl)-[1,1′-biphenyl]-4-yl)-1H-benzo[d][1,2,3]triazole-7-carboxylic acid], for which the IC50 at DHODH is greater than 1 µM. For the same molecule, in the assay on Ramos cells, the inhibition at 30 µM was 89% and the IC50 was 3.05 µM.

Turning to `CC(C)NCc1cccc(-c2c(F)c(F)c(-c3cc(C(=O)O)c4c(c3)nnn4C)c(F)c2F)c1` [Compound 36, 1-methyl-5-(2,3,5,6-tetrafluoro-3′-((isopropylamino)methyl)-[1,1′-biphenyl]-4-yl)-1H-benzo[d][1,2,3]triazole-7-carboxylic acid], at DHODH, the IC50 fell in the range of 0.101 to 1 µM.

Take `Cn1nc2cc(-c3c(F)c(F)c(-c4ccccc4)c(F)c3F)cc(C(=O)O)c2n1` [Compound 24, 2-methyl-6-(2,3,5,6-tetrafluoro-[1,1′-biphenyl]-4-yl)-2H-benzo[d][1,2,3]triazole-4-carboxylic acid]: the IC50 at DHODH is less than 0.1 µM; in the assay on Ramos cells, 0.4 µM. Besides, the inhibition at 30 µM in the assay with Ramos cells was determined as 104%.

Take `Cn1nc2cc(-c3ccc(-c4ccccc4CN4CCOCC4)cc3)cc(C(=O)O)c2n1` [Compound 26, 2-methyl-6-(2′-(morpholinomethyl)-[1,1′-biphenyl]-4-yl)-2H-benzo[d][1,2,3]triazole-4-carboxylic acid]: at DHODH, the IC50 was greater than 1 µM. Moreover, in the assay with Ramos cells, the inhibition at 30 µM amounted to 133% and the IC50 is 4.25 µM.

For `Cc1ccccc1-c1ccc(-c2cc(C(N)=O)c3nn(C)nc3c2)cc1` [Compound 11, 2-methyl-6-(2′-methyl-[1,1′-biphenyl]-4-yl)-2H-benzo[d][1,2,3]triazole-4-carboxamide], the IC50 on DHODH lay within 0.101 to 1 µM. In addition, the inhibition at 10 µM in the assay on Ramos cells stood at 67%.

For `Cn1nnc2cc(-c3ccc(-c4ccccc4CN4CCOCC4)cc3)cc(C(=O)O)c21` [Compound 25, 1-methyl-5-(2′-(morpholinomethyl)-[1,1′-biphenyl]-4-yl)-1H-benzo[d][1,2,3]triazole-7-carboxylic acid], the IC50 at DHODH is 0.101 to 1 µM. Further, in the assay on Ramos cells, the inhibition at 30 µM turned out to be 120% and the IC50 stood at 2.82 µM.

On to `CN1CCN(Cc2cccc(-c3c(F)c(F)c(-c4cc(C(=O)O)c5c(c4)nnn5C)c(F)c3F)c2)CC1` [Compound 35, 1-methyl-5-(2,3,5,6-tetrafluoro-3′-((4-methylpiperazin-1-yl)methyl)-[1,1′-biphenyl]-4-yl)-1H-benzo[d][1,2,3]triazole-7-carboxylic acid], for which the IC50 at DHODH was greater than 1 µM.

Turning to `Cn1nnc2cc(-c3c(F)c(F)c(-c4cccc(CN5CCOCC5)c4)c(F)c3F)cc(C(=O)O)c21` [Compound 33, 1-methyl-5-(2,3,5,6-tetrafluoro-3′-(morpholinomethyl)-[1,1′-biphenyl]-4-yl)-1H-benzo[d][1,2,3]triazole-7-carboxylic acid], the IC50 at DHODH was 0.101 to 1 µM.

As a reminder, the IC50 is the concentration that inhibits the measured activity by half. For orientation: inhibition means the change of the read-out against control, counted positive when it falls.

For the origin of these results see patent US11147801B2, “Methods of use for trisubstituted benzotriazole derivatives as dihydroorotate oxygenase inhibitors” (Aurigene Discovery Technologies Limited, priority 2017, dated 2021).
